{
  "source": "the supplement of paper PMC10307832",
  "test_in_all_cases": "relative viability (nuclei count vs DMSO), 5 days (fraction); higher = more cells survive",
  "key": {"AZ628": {"compound": "CC1=C(C=C(C=C1)NC(=O)C2=CC(=CC=C2)C(C)(C)C#N)NC3=CC4=C(C=C3)N=CN(C4=O)C [AZ628]", "procedure,_shortened": "(§1)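 Five library-drug doses spaced by √10 were pinned onto vehicle-anchored 1536-well plates of lung cancer cell lines that had been kept overnight at 37 °C. Cells went 5 days without medium change, then were fixed, permeabilised and Hoechst-stained together, imaged at 4× and counted by MetaXpress. Viability is the ratio of treated-well to vehicle-well nuclei, taken as a median over plates. Plates required control CV below 25% and at least one doubling.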"}, "QS11": {"compound": "C1CC2=C(C1)C=C(C=C2)OC3=NC(=C4C(=N3)N(C=N4)CC5=CC=C(C=C5)C6=CC=CC=C6)N[C@@H](CC7=CC=CC=C7)CO [QS11]", "procedure,_shortened": "as §1"}, "Darinaparsin": {"compound": "C[As](C)SC[C@H](NC(=O)CC[C@H](N)C(=O)O)C(=O)NCC(=O)O [Darinaparsin]", "procedure,_shortened": "as §1"}, "[1]": {"compound": "C[As](C)SC[C@H](NC(=O)CC[C@H](N)C(=O)O)C(=O)NCC(=O)O [Darinaparsin] + CC(=O)Nc1cccc(-n2c(=O)n(C3CC3)c(=O)c3c(Nc4ccc(I)cc4F)n(C)c(=O)c(C)c32)c1 [Trametinib] (partner 0.02 µM)", "procedure,_shortened": "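Cells from lung cancer lines were seeded into 1536-well plates and, one day later, dosed by pin tool. Treatments were either a single drug or a fixed dose of an anchor drug with five library-drug doses (not always all listed) in √10 steps. After 5 days, nuclei were stained in a one-step fixation (final 0.05% Triton X-100, 1% formaldehyde, 1 ug/ml Hoechst) and counted on 4× images, and relative viability is the treated-to-vehicle nuclei ratio, as the median of duplicate plates.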"}},
  "data": [
    {"cell line": "LCLC-97TM1", "values": [
      {"measurement": "relative viability", "setting": "AZ628; 0.08 µM", "result": 1.17},
      {"measurement": "relative viability", "setting": "AZ628; 0.253 µM", "result": 0.849},
      {"measurement": "relative viability", "setting": "AZ628; 0.8 µM", "result": 0.765},
      {"measurement": "relative viability", "setting": "AZ628; 2.53 µM", "result": 0.761},
      {"measurement": "relative viability", "setting": "AZ628; 8 µM", "result": 0.199},
      {"measurement": "relative viability", "setting": "QS11; 0.253 µM", "result": 1.15},
      {"measurement": "relative viability", "setting": "QS11; 2.53 µM", "result": 0.998},
      {"measurement": "relative viability", "setting": "QS11; 8 µM", "result": 0.84},
      {"measurement": "relative viability", "setting": "Darinaparsin; 0.08 µM", "result": 1.13},
      {"measurement": "relative viability", "setting": "Darinaparsin; 0.8 µM", "result": 0.834},
      {"measurement": "relative viability", "setting": "Darinaparsin; 2.53 µM", "result": 1},
      {"measurement": "relative viability", "setting": "Darinaparsin; 8 µM", "result": 1.02},
      {"measurement": "relative viability", "setting": "[1]; first compound 0.08 µM", "result": 0.264},
      {"measurement": "relative viability", "setting": "[1]; first compound 0.8 µM", "result": 0.237},
      {"measurement": "relative viability", "setting": "[1]; first compound 2.53 µM", "result": 0.204},
      {"measurement": "relative viability", "setting": "[1]; first compound 8 µM", "result": 0.225}
    ]}
  ]
}
